Source: patent US7166637B2, “Hydroxyindoles, their use as inhibitors of phosphodiesterase 4, and processes for preparing them” (Elbion AG, priority 2002, dated 2007)

molecular target: PDE 4 (cytosolic fraction from human polymorphonuclear lymphocytes (PMNLs)); assay: Inhibition of phosphodiesterase 4 (SPA assay, [3H]-cAMP substrate); assay type: biochemical; details: enzyme preparation from human PMNLs; 0.5 μM [3H]-cAMP; 37° C., 30 minutes
Method: The PDE 4 activity is determined using enzyme preparations from human polymorphonuclear lymphocytes (PMNLs).
Human blood (buffy coats) was anticoagulated with citrate. The platelet-rich plasma in the supernatant is separated from the erythrocytes and leucocytes by centrifuging at 700×g for 20 minutes at room temperature (RT). The PMNLs for the PDE 4 determination are isolated by means of a subsequent dextran sedimentation followed by a gradient centrifugation using Ficoll-Paque. After the cells have been washed twice, the erythrocytes which are still present are lysed within 6 minutes by adding 10 ml of hypotonic buffer (155 mM NH4Cl, 10 mM NaHCO3, 0.1 mM EDTA, pH=7.4) at 4° C. The PMNLs, which are still intact, are washed a further two times with PBS and lysed by ultrasonication. The supernatant obtained after centrifuging at 48 000×g at 4° C. for one hour contains the cytosolic PDE 4 fraction and is used for the PDE 4 measurements.
The phosphodiesterase activity is measured using a modified Amersham Pharmacia Biotech method, i.e. an SPA (scintillation proximity assay) assay. The reaction mixtures contain buffer (50 mM tris-HCl (pH 7.4), 5 mM MgCl2, 100 μM cGMP), varying concentrations of the inhibitors, and the corresponding enzyme preparation. The reaction is started by adding the substrate, i.e. 0.5 μM [^3H]-cAMP. The final volume is 100 μl. Test substances are prepared as stock solutions in DMSO. The concentration of DMSO in the reaction mixture is 1% v/v. This DMSO concentration has no effect on PDE activity. After the reaction has been started by adding the substrate, the samples are incubated at 37° C. for 30 minutes. The reaction is stopped by adding a defined quantity of SPA beads and the samples are measured in a beta counter after one hour. The nonspecific enzyme activity (i.e. the blank) is determined in the presence of 100 μM rolipram and subtracted from the test values. The incubation mixtures for the PDE 4 assay contain 100 μM cGMP in order to inhibit any contamination of PDE 3 which may be present.

First: O=C(Nc1c(Cl)cncc1Cl)C(=O)c1cn(Cc2ccc(Cl)cc2)c2c(O)cccc12 [Compound 2, N-(3,5-dichloropyrdin-4-yl)-[1-(4-chlorobenzyl)-7-hydroxyindol-3-yl]glyoxylamide]
Second: O=C(Nc1c(Cl)cncc1Cl)C(=O)c1cn(Cc2ccc(F)cc2)c2c(O)cccc12 [Compound 5]
The IC50 of the first is 7.5-fold lower: 2 nM for the first, 15 nM for the second.

Compared with `O=C(Nc1c(Cl)cncc1Cl)C(=O)c1cn(Cc2ccc(F)cc2)c2cccc(O)c12` [Compound 4], `O=C(Nc1c(Cl)cncc1Cl)C(=O)c1cn(Cc2ccc(O)cc2)c2c(O)cccc12` [Compound 22] is 310-fold lower in IC50: 938 nM for the first, 3 nM for the second.

Compared with `O=C(Nc1c(Cl)cncc1Cl)C(=O)c1cn(Cc2ccccc2F)c2c(O)cccc12` [Compound 6], `O=C(Nc1c(Cl)cncc1Cl)C(=O)c1cn(Cc2c(F)cccc2F)c2c(O)cccc12` [Compound 8] is 2-fold higher in IC50: 1 nM for the first, 2 nM for the second.

Going from `O=C(Nc1c(Cl)cncc1Cl)C(=O)c1cn(Cc2cccc([N+](=O)[O-])c2)c2c(O)cccc12` [Compound 7] to `CC(C)Cn1cc(C(=O)C(=O)Nc2c(Cl)cncc2Cl)c2cccc(O)c21` [Compound 15], the IC50 rises from 2 nM to 20 nM (10-fold). The first is the more potent here.

Going from `O=C(Nc1c(Cl)cncc1Cl)C(=O)c1cn(CC2CC2)c2c(O)cccc12` [Compound 16] to `O=C(Nc1c(Cl)cccc1Cl)C(=O)c1cn(Cc2ccc(F)cc2)c2c(O)cccc12` [Compound 17], the IC50 rises from 30 nM to 141 nM (4.7-fold).
